Measurements as given in the NIST ThermoML archive (doi:10.1016/j.tca.2019.05.008).
Numbers after ± are expanded uncertainties.

Columns and labels:
[1] = Fast Scanning Calorimeter Method
[2] = molar heat capacity at constant pressure; settings: 101.33 kPa, Crystal, DSC

Cn1c(=O)c2[nH]cnc2n(C)c1=O [3,7-dihydro-1,3-dimethyl-1H-purine-2,6-dione]
[1], Crystal
Settings | vapor or sublimation pressure [kPa]
441.6 K | 0.0028
447.2 K | 0.0033
449.1 K | 0.0047
451 K | 0.0061
457 K | 0.0072
459 K | 0.0108
460.4 K | 0.0109
466.7 K | 0.0133
468.9 K | 0.0192
469.8 K | 0.021
476.5 K | 0.0261
478.7 K | 0.0365
479.2 K | 0.0409
486.2 K | 0.0532
496 K | 0.1094
498 K | 0.1408
498.5 K | 0.1485
505.7 K | 0.1888
507.4 K | 0.2298
508.3 K | 0.2823
515.5 K | 0.3649
516.8 K | 0.3867
518.2 K | 0.4909
525.2 K | 0.563
526.2 K | 0.8232
528.1 K | 0.8994
535 K | 1.001
537.9 K | 1.619

[2]
Settings | molar heat capacity at constant pressure [J/K/mol]
230 K | 159.6 ± 7.4
240 K | 164.8 ± 7.6
250 K | 170 ± 7.9
260 K | 175.1 ± 8.1
270 K | 180.2 ± 8.4
280 K | 185.3 ± 8.6
290 K | 190.3 ± 8.8
300 K | 195.4 ± 9.1
310 K | 200.4 ± 9.3
320 K | 205.3 ± 9.5
330 K | 210.3 ± 9.8
340 K | 215.2 ± 10
350 K | 220.1 ± 10
360 K | 224.9 ± 10
370 K | 229.7 ± 11
380 K | 234.5 ± 11
390 K | 239.3 ± 11
400 K | 244 ± 11
410 K | 248.7 ± 12
420 K | 253.4 ± 12

O=C1c2ccccc2C(=O)c2ccccc21 [9,10(9H,10H)-anthracenedione]
[1], Crystal
Settings | vapor or sublimation pressure [kPa]
422.8 K | 0.0135
427.7 K | 0.0152
429.2 K | 0.0165
432.2 K | 0.0209
437.4 K | 0.0345
439.1 K | 0.0354
441.6 K | 0.0381
447.2 K | 0.0511
448.9 K | 0.0693
451 K | 0.0839
457 K | 0.1042
458.8 K | 0.148
460.4 K | 0.1696
466.7 K | 0.1977
468.7 K | 0.2749
469.8 K | 0.2497
476.5 K | 0.3235
478.5 K | 0.487

[2]
Settings | molar heat capacity at constant pressure [J/K/mol]
230 K | 182.5 ± 8.5
240 K | 188.9 ± 8.8
250 K | 195.4 ± 9.1
260 K | 201.9 ± 9.4
270 K | 208.3 ± 9.7
280 K | 214.8 ± 10
290 K | 221.3 ± 10
300 K | 227.8 ± 11
310 K | 234.3 ± 11
320 K | 240.8 ± 11
330 K | 247.3 ± 12
340 K | 253.8 ± 12
350 K | 260.4 ± 12
360 K | 266.9 ± 12
370 K | 273.5 ± 13
380 K | 280 ± 13
390 K | 286.6 ± 13
400 K | 293.2 ± 14
410 K | 299.8 ± 14
420 K | 306.4 ± 14

Cn1c(=O)c2c(ncn2C)n(C)c1=O [caffeine]
[1], Crystal 1
Settings | vapor or sublimation pressure [kPa]
394.7 K | 0.0031
398.4 K | 0.0035
399.8 K | 0.0039
404.1 K | 0.0067
408.2 K | 0.0092
409.7 K | 0.0099
413.5 K | 0.0116
417.9 K | 0.0158
419.5 K | 0.019
422.8 K | 0.023
427.7 K | 0.0336
429.4 K | 0.0376
432.2 K | 0.0467
437.4 K | 0.0651
439.3 K | 0.0736
441.6 K | 0.0874
447.2 K | 0.1252
449.1 K | 0.1611
451 K | 0.1622
457 K | 0.2346
459 K | 0.2609
460.4 K | 0.2914
466.7 K | 0.4121
468.9 K | 0.4821
469.8 K | 0.4864
476.5 K | 0.7169
478.7 K | 0.8343
479.2 K | 0.9112
486.2 K | 1.078
488.6 K | 1.415
